Measured values as given in ChEMBL document CHEMBL1201862, “PubChem BioAssay data set” (2004).
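Step 1: Grow cells in 96-well plates. Step 2: Expose to compound for 48 hours at 5 concentrations. Step 3: Interpolate endpoints linearly; if unreached, use highest concentration. GI50 = concentration required for 50% inhibition of growth.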 Calls of active or inactive are those of the source. Cut-off read from the data, not from the text of the source: active = GI50 up to about 1.1 µM and inactive = higher.

Columns and labels:
Test in all cases: DTP human tumour cell line panel, 48 h
KM12 = tested on: KM12
HT-29 = tested on: HT-29
SF-268 = tested on: SF-268
Malme-3M = tested on: Malme-3M
OVCAR-4 = tested on: OVCAR-4
UACC-257 = tested on: UACC-257
RXF 393 = tested on: RXF 393
K562 = tested on: K562
HOP-92 = tested on: HOP-92
CCRF-CEM = tested on: CCRF-CEM
SK-OV-3 = tested on: SK-OV-3
OVCAR-3 = tested on: OVCAR-3
NCI-H226 = tested on: NCI-H226
SK-MEL-2 = tested on: SK-MEL-2
NCI/ADR-RES = tested on: NCI/ADR-RES
NCI-H460 = tested on: NCI-H460
LOX IMVI = tested on: LOX IMVI
OVCAR-8 = tested on: OVCAR-8
A498 = tested on: A498
NCI-H522 = tested on: NCI-H522

Measured: GI50

Cn1c(=O)cc(NCCc2ccccc2)[nH]c1=O
inactive: KM12 15.3 µM | HT-29 25.5 µM | SF-268 > 100 µM | Malme-3M 34.8 µM | OVCAR-4 > 100 µM | UACC-257 50 µM | RXF 393 57.8 µM | K562 19.1 µM | HOP-92 > 100 µM | CCRF-CEM 31.7 µM | SK-OV-3 53.6 µM | OVCAR-3 16.1 µM | NCI-H226 > 100 µM | SK-MEL-2 51.1 µM | NCI/ADR-RES 24.7 µM | NCI-H460 34.2 µM | LOX IMVI 46.6 µM | OVCAR-8 43.4 µM | A498 46 µM

N#CCCOCN(CO)c1nc(N(CO)COCCC#N)nc(N(CO)COCCC#N)n1
inactive: KM12 33 µM | HT-29 29.1 µM | SF-268 23.1 µM | Malme-3M 24.9 µM | OVCAR-4 26.9 µM | UACC-257 28 µM | RXF 393 20.9 µM | K562 25 µM | HOP-92 23.4 µM | CCRF-CEM 23.6 µM | SK-OV-3 > 100 µM | OVCAR-3 25.7 µM | NCI-H226 22.7 µM | SK-MEL-2 19 µM | NCI-H460 29.7 µM | NCI-H522 22.3 µM | LOX IMVI 31.8 µM | OVCAR-8 15.8 µM | A498 > 100 µM

CN1C(=O)C(CC=O)(C(C)(C)C)c2ccccc21 (centres undefined)
inactive: KM12 > 100 µM | SF-268 > 100 µM | OVCAR-4 > 100 µM | UACC-257 > 100 µM | RXF 393 > 100 µM | K562 91.6 µM | HOP-92 69 µM | CCRF-CEM 60 µM | SK-OV-3 > 100 µM | OVCAR-3 > 100 µM | SK-MEL-2 > 100 µM | NCI/ADR-RES > 100 µM | NCI-H460 > 100 µM | LOX IMVI 37.8 µM | A498 > 100 µM

COc1c(C)c(C/C=C(\C)CCCC(C)CCCC(C)CCCC(C)C)c(OC)c2ccccc12 (centres undefined)
inactive: KM12 > 100 µM | HT-29 > 100 µM | SF-268 > 100 µM | OVCAR-4 > 100 µM | UACC-257 > 100 µM | RXF 393 > 100 µM | K562 > 100 µM | HOP-92 > 100 µM | CCRF-CEM > 100 µM | SK-OV-3 > 100 µM | OVCAR-3 > 100 µM | SK-MEL-2 > 100 µM | NCI/ADR-RES > 100 µM | NCI-H460 > 100 µM | NCI-H522 > 100 µM | LOX IMVI > 100 µM | OVCAR-8 > 100 µM

CCc1ccccc1NC(=O)C1=C(C)NC(C)=C(C(=O)Nc2ccccc2CC)C1c1cccc([N+](=O)[O-])c1
inactive: KM12 32.8 µM | HT-29 37.1 µM | SF-268 43 µM | Malme-3M 35.9 µM | OVCAR-4 7.85 µM | UACC-257 33.2 µM | RXF 393 10.5 µM | K562 29.4 µM | HOP-92 13.2 µM | CCRF-CEM 12.1 µM | SK-OV-3 > 100 µM | OVCAR-3 52 µM | NCI-H226 29.8 µM | SK-MEL-2 19.5 µM | NCI-H460 27.7 µM | NCI-H522 22.2 µM | LOX IMVI 87.9 µM | OVCAR-8 44.7 µM | A498 24.2 µM

COC(=O)c1cc(=O)nc2sc3cccc(C)c3n12
inactive: KM12 > 100 µM | HT-29 28.5 µM | SF-268 61.1 µM | Malme-3M 23.9 µM | OVCAR-4 > 100 µM | UACC-257 65 µM | RXF 393 56.1 µM | K562 30.3 µM | HOP-92 30.2 µM | CCRF-CEM 20.2 µM | SK-OV-3 > 100 µM | OVCAR-3 23 µM | NCI-H226 18.7 µM | SK-MEL-2 30.3 µM | NCI/ADR-RES > 100 µM | NCI-H460 68.7 µM | NCI-H522 23.2 µM | LOX IMVI 14.8 µM | OVCAR-8 20.9 µM

COc1ccc(-c2nc(-c3cnccn3)n(C3OC(CO)C(O)C(O)C3O)n2)cc1 (centres undefined)
inactive: KM12 > 100 µM | HT-29 > 100 µM | SF-268 > 100 µM | OVCAR-4 > 100 µM | UACC-257 > 100 µM | RXF 393 > 100 µM | K562 > 100 µM | HOP-92 > 100 µM | CCRF-CEM > 100 µM | SK-OV-3 > 100 µM | OVCAR-3 > 100 µM | NCI/ADR-RES > 100 µM | NCI-H460 > 100 µM | NCI-H522 > 100 µM | LOX IMVI > 100 µM | OVCAR-8 > 100 µM

O=[N+]([O-])C1CC/C(=N/O)c2nonc21 (centres undefined)
inactive: KM12 > 10 µM | HT-29 > 10 µM | SF-268 > 10 µM | Malme-3M > 10 µM | OVCAR-4 > 10 µM | UACC-257 > 10 µM | RXF 393 > 10 µM | K562 > 10 µM | HOP-92 > 10 µM | CCRF-CEM > 10 µM | OVCAR-3 > 10 µM | NCI-H226 > 10 µM | NCI/ADR-RES > 10 µM | NCI-H460 > 10 µM | OVCAR-8 > 10 µM | A498 > 10 µM

c1ccc(/C(=N/Nc2cnccn2)c2ncccn2)cc1
inactive: KM12 39 µM | HT-29 27.4 µM | SF-268 22.5 µM | OVCAR-4 67.9 µM | UACC-257 > 100 µM | RXF 393 > 100 µM | K562 > 100 µM | HOP-92 35.7 µM | CCRF-CEM 28 µM | SK-OV-3 57.7 µM | OVCAR-3 30.8 µM | SK-MEL-2 > 100 µM | NCI/ADR-RES 83.2 µM | NCI-H460 > 100 µM | NCI-H522 14.9 µM | OVCAR-8 46 µM

Cc1cc2c(cc1C)C(=O)C1(C2)Cc2c(ccc(C)c2C)C1=O (centres undefined)
inactive: KM12 > 100 µM | SF-268 90.8 µM | Malme-3M 98.6 µM | OVCAR-4 75.5 µM | UACC-257 > 100 µM | RXF 393 53.8 µM | K562 > 100 µM | HOP-92 79.4 µM | CCRF-CEM > 100 µM | OVCAR-3 > 100 µM | NCI-H226 > 100 µM | SK-MEL-2 > 100 µM | NCI/ADR-RES > 100 µM | NCI-H460 > 100 µM | NCI-H522 > 100 µM | LOX IMVI > 100 µM | OVCAR-8 72.8 µM

CC1(C)C2CC(=O)C1(C)C(OCc1ccccc1)C2 (centres undefined)
inactive: KM12 60.8 µM | HT-29 40.6 µM | SF-268 > 100 µM | Malme-3M 32.9 µM | UACC-257 74 µM | K562 22.2 µM | CCRF-CEM 26.1 µM | SK-OV-3 54.8 µM | OVCAR-3 62.7 µM | NCI-H226 > 100 µM | SK-MEL-2 > 100 µM | NCI/ADR-RES 28.6 µM | NCI-H460 33.3 µM | NCI-H522 22.2 µM | LOX IMVI 22.1 µM | OVCAR-8 > 100 µM | A498 > 100 µM

CC(=O)NNC1=NN(C(C)=O)C2(S1)C(=O)Nc1ccccc12 (centres undefined)
inactive: KM12 > 100 µM | HT-29 > 100 µM | SF-268 > 100 µM | Malme-3M > 100 µM | OVCAR-4 > 100 µM | UACC-257 > 10 µM | K562 > 100 µM | CCRF-CEM > 100 µM | SK-OV-3 > 100 µM | OVCAR-3 > 100 µM | NCI-H226 > 100 µM | SK-MEL-2 > 100 µM | NCI/ADR-RES > 100 µM | NCI-H460 > 100 µM | NCI-H522 > 100 µM | LOX IMVI > 100 µM | OVCAR-8 > 100 µM

COC(=O)c1c(O)ccc2c1c1c(n2Cc2ccc(OC)cc2)C(=O)c2ccccc2C1
inactive: KM12 63.7 µM | HT-29 21.7 µM | SF-268 30.3 µM | Malme-3M > 100 µM | OVCAR-4 30.8 µM | UACC-257 44.4 µM | RXF 393 20.3 µM | K562 76.7 µM | CCRF-CEM 21.9 µM | SK-OV-3 31 µM | OVCAR-3 63.2 µM | NCI-H226 > 100 µM | SK-MEL-2 62.5 µM | NCI/ADR-RES 32.9 µM | NCI-H460 29.3 µM | LOX IMVI 57.7 µM | OVCAR-8 > 100 µM | A498 > 100 µM

CCOC(=O)C1=C(Nc2cccc(OC)c2)OCC1=O
inactive: KM12 > 100 µM | HT-29 > 100 µM | SF-268 > 100 µM | OVCAR-4 > 100 µM | UACC-257 > 100 µM | RXF 393 > 100 µM | K562 > 100 µM | HOP-92 > 100 µM | CCRF-CEM > 100 µM | SK-OV-3 > 100 µM | NCI-H226 > 100 µM | SK-MEL-2 > 100 µM | NCI/ADR-RES > 100 µM | NCI-H460 > 100 µM | LOX IMVI > 100 µM | OVCAR-8 > 100 µM | A498 27.7 µM

CC(=O)c1ccc(N2CCN(C3=CC(=O)c4c(O)ccc(O)c4C3=O)CC2)cc1
inactive: KM12 51.8 µM | HT-29 30.2 µM | SF-268 33 µM | Malme-3M 4.36 µM | OVCAR-4 > 100 µM | UACC-257 > 100 µM | RXF 393 47.8 µM | K562 37.5 µM | HOP-92 25.8 µM | CCRF-CEM 15.2 µM | OVCAR-3 39.9 µM | NCI/ADR-RES 3.44 µM | NCI-H460 48.5 µM | OVCAR-8 13.1 µM | A498 > 100 µM

NC(=O)CC[C@H]1C(=O)N=C(N)N1C(=O)OCc1ccccc1
inactive: KM12 > 100 µM | HT-29 > 100 µM | SF-268 > 100 µM | Malme-3M > 100 µM | OVCAR-4 > 100 µM | UACC-257 > 100 µM | RXF 393 > 100 µM | K562 > 100 µM | OVCAR-3 > 100 µM | NCI-H226 > 100 µM | SK-MEL-2 > 100 µM | NCI/ADR-RES > 100 µM | NCI-H460 > 100 µM | NCI-H522 > 100 µM | LOX IMVI > 100 µM | OVCAR-8 > 100 µM | A498 > 100 µM
